How the values were obtained:
[1] = system: p-ERK in PNAC-1/HPAC cell; assay: Phospho-ERK 1/2 assay (Table 1); format: cell-based; conditions: Homo sapiens; PNAC-1/HPAC cell, 3 hours compound incubation; read-out: p-ERK IC50
Procedure: (§1) Allow PNAC-1/HPAC cell growth in a T75 flask in DMEM and 10% 1 fetal calf serum (FCS; Gibco), using standard tissue culture procedures until ˜80% confluency is achieved. Day 1, seed 6000 cells/well in 384 well plate and incubate at 37° C., 5% CO2. Add diluted compound by Echo 550, final DMSO is 0.5%, incubate cells at 37° C., 5% CO2 for 3 hours. Then, remove medium and fix cells with 3.7% formaldehyde in PBS (PFA) by Apricot. Wash with PBS once. Permeabilize cells with cold 100% methanol and repeat wash once with PBS once. Add Li-Cor blocking buffer to each well and incubate 1.5 hours at RT. Remove blocking buffer and add primary antibody mixture (rabbit anti pERK, mouse anti GAPDH). Incubate at 4° C. overnight. Day 2, wash with PBST (Tween-20 in PBS) with total 3 times and then add secondary antibody mixture (goat anti rabbit 800CW (1:800 dilution in the combined solution) and goat anti mouse 680RD (1:800 dilution in the combined solution)), incubate for 60 minutes at RT away from light. Repeat washing with PBST 3 times. After final wash, centrifuge plate up-side-down at 1000 rpm to remove wash solution completely from wells. Before plate scanning, clean the bottom plate surface and the Odyssey* Imager scanning bed (if applicable) with moist, lint-free tissue to avoid any obstructions during scanning. Scan plate with detection in both 700 and 800 nm channels.

[2] = system: HPAC (ATCC CRL-2119) cells; assay: KRAS G12D 3D CellTiter-Glo proliferation assay, HPAC; format: cell-based; conditions: Homo sapiens, 168 h, 3D proliferation, 7 days, CellTiter-Glo 3D
Procedure: (§2) HPAC (ATCC CRL-2119) and AsPC-1 (ATCC CRL-1682) cells were purchased from ATCC, and each cell was cultured in medium supplemented with 10% fetal bovine serum (FBS), according to the protocol recommended by the manufacture. Serially diluted compound was added to 384-well Ultra-Low Attachment Surface round bottom plate (Corning). 400 cells/well were seeded in plate and incubated at 37° C., 5% CO2 for 7 days. Cell viability was measured using a CellTiter-Glo® 3D Cell Viability Assay kit (Promega) according to the manufacturer's protocol.
(§3) The 2D and 3D proliferation data of the exemplary compounds of the present disclosure in different cell lines are shown in Table 3.

[3] = system: AsPC-1 (ATCC CRL-1682) cells; assay: KRAS G12D 3D CellTiter-Glo proliferation assay, AsPC-1; format: cell-based; conditions: Homo sapiens, ASPC1, 168 h; 3D proliferation, 7 days, CellTiter-Glo 3D
Procedure: as §2, §3

[4] = system: AsPC-1 (ATCC CRL-1682) cells; assay: KRAS G12D 2D CellTiter-Glo proliferation assay, AsPC-1; format: cell-based; conditions: Homo sapiens, ASPC1, 2D proliferation, 72 hours
Procedure: (§4) AsPC-1 (ATCC CRL-1682) and LS513 (ATCC CRL-2134) cells were purchased from ATCC, GP2D (Cobioer CBP60010) cells was purchased from Cobioer biosciences CO., LTD, and each cell was cultured in medium supplemented with 10% fetal bovine serum (FBS), according to the protocol recommended by the manufacture. Cells were seeded 800 cells/well in 384-well plates (Corning) and incubated at 37° C., 5% CO2 for 18 hours. Serially diluted compound was added to the cells, and plates were incubated at 37° C., 5% CO2 for 72 hours. Cell viability was measured using a CellTiter-Glo® Luminescent Cell Viability Assay kit (Promega) according to the manufacturer's protocol.
as §3

[5] = system: GP2D (Cobioer CBP60010) cells; assay: KRAS G12D 2D CellTiter-Glo proliferation assay, GP2D; format: cell-based; conditions: 2D proliferation, 72 hours
Procedure: as §4, §3

[6] = system: LS513 (ATCC CRL-2134) cells; assay: KRAS G12D 2D CellTiter-Glo proliferation assay, LS513; format: cell-based; conditions: Homo sapiens, LS-513, 2D proliferation, 72 hours
Procedure: as §4, §3

Panc-1 p-ERK = assay: Phospho-ERK 1/2 assay, Panc-1 (Table 2); format: cell-based; conditions: Homo sapiens; Panc-1 cells
Procedure: as §1
(§5) Table 2 describes the p-ERK IC50 values and selectivity over WT-KRAS cell line MKN-1 of the exemplary compounds of the present disclosure and reference compound MRTX-1133.

WT-KRAS cell line MKN-1 = assay: Phospho-ERK 1/2 assay, WT-KRAS cell line MKN-1 (Table 2); format: cell-based
Procedure: as §1, §5

[7] = In vivo oral bioavailability assay; conditions: Balb/c mice female, IV bolus 1 mg/kg and oral gavage 30 mg/kg, single dose
Procedure: Single dose following IV bolus (1 mg/kg, 0.2 mg/mL in 1% DMSO, 99% SBE-β-CD (10% w/v) in water) and oral gavage (30 mg/kg, 3 mg/mL in 1% MC in DI water) administration of test compound in Balb/c Mice female. The blood samples were collected at 2 min, 5 min, 10 min, 30 min, 1 hr, 2 hr, 4 hr, 8 hr and 24 hr (additional 32 hr and 48 hr for MRTX1133) after IV bolus, at 15 min, 30 min, 1 hr, 1.5 hr, 2 hr, 3 hr, 4 hr, 8 hr and 24 hr (additional 32 hr and 48 hr for MRTX1133) after PO administration. The plasma concentrations of compounds were determined with UPLC-MS/MS.

In the case of `Oc1cc(Cl)c(C2CC2)c(-c2nc3c4c(nc(OC[C@@]56CCCN5C[C@H](F)C6)nc4c2F)N2C[C@@H]4CC[C@@H](N4)C2CO3)c1` (stereo partly drawn) [Compound 24, 3-chloro-4-cyclopropyl-5-((6R,9S)-1-fluoro-12-(((2R,7aS)-2-fluorotetrahydro-1H-pyrrolizin-7a(5H)-yl)methoxy)-5a,6,7,8,9,10-hexahydro-5H-4-oxa-3,10a,11,13,14-pentaaza-6,9-methanonaphtho[1,8-ab]heptalen-2-yl)phenol], the IC50 [1] is reported as 0.007 µM, the IC50 [2] is reported as 0.0071 µM and the IC50 [3] is reported as 0.0087 µM. It also gave an IC50 [4] of 0.071 µM, an IC50 [5] of 0.0022 µM and an IC50 [6] of 0.093 µM.

With `C#Cc1c(F)ccc2cc(O)cc(-c3ncc4c(N5CC6CCC(C5)N6)nc(OC[C@@]56CCCN5C[C@H](F)C6)nc4c3F)c12` [MRTX-1133, reference compound] the IC50 (Panc-1 p-ERK) was 0.0023 µM, the IC50 (WT-KRAS cell line MKN-1; Homo sapiens, WT-KRAS cell line MKN-1, p-ERK) was 0.083 µM and the “Selectivity Fold” value (WT-KRAS cell line MKN-1; selectivity over WT-KRAS cell line MKN-1 vs Panc-1 p-ERK) was 36 Fold. The “Bioavailability (%)” value [7] was 0.66% and the “Fa*Fg (%)” value [7] was 0.95%.

`Oc1cc(-c2nc3c4c(nc(OCC56CCCN5CCC6)nc4c2F)N2C[C@@H]4CC[C@@H](N4)C2CO3)c2c(Cl)cccc2c1` (stereo partly drawn) [Compound 2, 5-chloro-4-((6R,9S)-1-fluoro-12-((tetrahydro-1H-pyrrolizin-7a(5H)-yl)methoxy)-5a,6,7,8,9,10-hexahydro-5H-4-oxa-3,10a,11,13,14-pentaaza-6,9-methanonaphtho[1,8-ab]heptalen-2-yl)naphthalen-2-ol] gave an IC50 [1] of 0.73 µM.

`[2H]C#Cc1c(F)ccc2cccc(-c3nc4c5c(nc(OC[C@@]67CCCN6C[C@H](F)C7)nc5c3F)N3CC5CCC(N5)[C@H]3CO4)c12` (stereo in doubt) [Compound 34, (5aS,6R,9S)-2-(8-(ethynyl-d)-7-fluoronaphthalen-1-yl)-1-fluoro-12-(((2R,7aS)-2-fluorotetrahydro-1H-pyrrolizin-7a(5H)-yl)methoxy)-5a,6,7,8,9,10-hexahydro-5H-4-oxa-3,10a,11,13,14-pentaaza-6,9-methanonaphtho[1,8-ab]heptalene] showed an IC50 [1] of 0.005 µM.

`Fc1c(-c2cccc3cccc(Cl)c23)nc2c3c(nc(OC[C@@]45CCCN4C[C@H](F)C5)nc13)N1C[C@@H]3CC[C@@H](N3)C1CO2` (stereo partly drawn) [Compound 12, (6R,9S)-2-(8-chloronaphthalen-1-yl)-1-fluoro-12-(((2R,7aS)-2-fluorotetrahydro-1H-pyrrolizin-7a(5H)-yl)methoxy)-5a,6,7,8,9,10-hexahydro-5H-4-oxa-3,10a,11,13,14-pentaaza-6,9-methanonaphtho[1,8-ab]heptalene] showed an IC50 [1] of 0.068 µM.

For `CCCCCCCCCC(=O)OCOC(=O)N1[C@@H]2CC[C@H]1[C@H]1COc3nc(-c4cc(O)cc5ccc(F)c(CC)c45)c(F)c4nc(OC[C@@]56CCCN5C[C@H](F)C6)nc(c34)N1C2` [Compound 45, (Decanoyloxy)methyl (5aS,6S,9R)-2-(8-ethyl-7-fluoro-3-hydroxynaphthalen-1-yl)-1-fluoro-12-(((2R,7aS)-2-fluorotetrahydro-1H-pyrrolizin-7a(5H)-yl)methoxy)-5a,6,7,8,9,10-hexahydro-5H-4-oxa-3,10a,11,13,14-pentaaza-6,9-methanonaphtho[1,8-ab]heptalene-14-carboxylate], the IC50 [1] was 0.0035 µM.

For `COc1ccc2cccc(-c3nc4c5c(nc(OC[C@@]67CCCN6C[C@H](F)C7)nc5c3F)N3C[C@@H]5CC[C@@H](N5)C3CO4)c2c1` (stereo partly drawn) [Compound 17, (6R,9S)-1-fluoro-12-(((2R,7As)-2-fluorotetrahydro-1H-pyrrolizin-7a(5H)-yl)methoxy)-2-(7-methoxynaphthalen-1-yl)-5a,6,7,8,9,10-hexahydro-5H-4-oxa-3,10a,11,13,14-pentaaza-6,9-methanonaphtho[1,8-ab]heptalene], the IC50 [1] was 1 µM.

`Oc1cc(-c2nc3c4c(nc(OC[C@@]56CCCN5C[C@H](F)C6)nc4c2F)N2C[C@H]4CC[C@H](N4)[C@H]2CO3)c2cc(F)ccc2c1` [Compound 30, 6-fluoro-4-((5aS,6S,9R)-1-fluoro-12-(((2R,7aS)-2-fluorotetrahydro-1H-pyrrolizin-7a(5H)-yl)methoxy)-5a,6,7,8,9,10-hexahydro-5H-4-oxa-3,10a,11,13,14-pentaaza-6,9-methanonaphtho[1,8-ab]heptalen-2-yl)naphthalen-2-ol] showed an IC50 [1] of 0.017 µM.

For `Fc1ccc2cccc(-c3nc4c5c(nc(OC[C@@]67CCCN6C[C@H](F)C7)nc5c3F)N3C[C@@H]5CC[C@@H](N5)C3CO4)c2c1Cl` (stereo partly drawn) [Compound 11, (6R,9S)-2-(8-chloro-7-fluoronaphthalen-1-yl)-1-fluoro-12-(((2R,7aS)-2-fluorotetrahydro-1H-pyrrolizin-7a(5H)-yl)methoxy)-5a,6,7,8,9,10-hexahydro-5H-4-oxa-3,10a,11,13,14-pentaaza-6,9-methanonaphtho[1,8-ab]heptalene], the IC50 [1] was 0.053 µM.

Work on `Fc1c(-c2cccc3cccc(F)c23)nc2c3c(nc(OC[C@@]45CCCN4C[C@H](F)C5)nc13)N1C[C@@H]3CC[C@@H](N3)C1CO2` (stereo partly drawn) [Compound 15, (6R,9S)-1-fluoro-2-(8-fluoronaphthalen-1-yl)-12-(((2R,7aS)-2-fluorotetrahydro-1H-pyrrolizin-7a(5H)-yl)methoxy)-5a,6,7,8,9,10-hexahydro-5H-4-oxa-3,10a,11,13,14-pentaaza-6,9-methanonaphtho[1,8-ab]heptalene] yielded an IC50 [1] of 0.221 µM.

Compound `C#Cc1c(F)ccc2cccc(-c3nc4c5c(nc(C(=O)N[C@H](C)CN(C)C)nc5c3F)N3CC5CCC(N5)[C@H]3CO4)c12` (stereo in doubt) [Compound 33, (5aS,6R,9S)—N—((R)-1-(dimethylamino)propan-2-yl)-2-(8-ethynyl-7-fluoronaphthalen-1-yl)-1-fluoro-5a,6,7,8,9,10-hexahydro-5H-4-oxa-3,10a,11,13,14-pentaaza-6,9-methanonaphtho[1,8-ab]heptalene-12-carboxamide] has an IC50 [1] of 0.075 µM.

Compound `C#Cc1c(F)ccc2cccc(-c3nc4c5c(nc(OCC6(CN7CCO[C@H](C)C7)CC6)nc5c3F)N3C[C@H]5CC[C@H](N5)[C@H]3CO4)c12` [Compound 41, (5aS)-2-(8-ethynyl-7-fluoronaphthalen-1-yl)-1-fluoro-12-((1-(((R)-2-methylmorpholino)methyl)cyclopropyl)methoxy)-5a,6,7,8,9,10-hexahydro-5H-4-oxa-3,10a,11,13,14-pentaaza-6,9-methanonaphtho[1,8-ab]heptalene] has an IC50 [1] of 0.39 µM.

Compound `C#Cc1c(F)ccc2cccc(-c3nc4c5c(nc(OC[C@@H]6C[C@@H](F)CN6C)nc5c3F)N3CC5CCC(N5)[C@H]3CO4)c12` (stereo in doubt) [Compound 32, (5aS,6R,9S)-2-(8-ethynyl-7-fluoronaphthalen-1-yl)-1-fluoro-12-(((2S,4R)-4-fluoro-1-methylpyrrolidin-2-yl)methoxy)-5a,6,7,8,9,10-hexahydro-5H-4-oxa-3,10a,11,13,14-pentaaza-6,9-methanonaphtho[1,8-ab]heptalene] has an IC50 [1] of 0.14 µM.
